# Results from BindingDB's records for doi:10.1021/jm00112a042 (Zambeletti Research Laboratories, 1991).
# pKi: −log10 of the molar value. Values joined by “and” are separate entries in the source; they are usually repeats but may differ in a detail not shown here. Equal values may be shown once.
# Experiments:
# [1] = Binding affinity was measured on opioid receptor delta sites.
# [2] = Affinity for opioid receptor delta sites
Structure (SMILES),pKi [1],pKi [2]
O=C(Cc1ccc(C(F)(F)F)cc1)N1CCc2ccccc2C1CN1CCCCC1 (stereo unspecified),< 6.00,
O=C(Cc1ccc(Cl)c(Cl)c1)N1CCc2sccc2C1CN1CCCC1 (stereo unspecified),,6.82
O=C(Cc1ccc(Cl)c(Cl)c1)N1CCc2c([nH]c3ccccc23)C1CN1CCCC1 (stereo unspecified),< 6.00,
O=C(Cc1ccc(Cl)c(Cl)c1)N1CCc2[nH]c3ccccc3c2C1CN1CCCC1 (stereo unspecified),,< 6.00
O=C(Cc1ccc(Cl)c(Cl)c1)N1CCc2sccc2C1CN1CCCCC1 (stereo unspecified),,< 6.00
O=C(Cc1ccc(Cl)c(Cl)c1)N1CCc2ccsc2C1CN1CCCC1 (stereo unspecified),,6.44
O=C(Cc1ccc(C(F)(F)F)cc1)N1CCc2sccc2C1CN1CCCCC1 (stereo unspecified),,< 6.00
CN(C)CC1c2ccccc2CCN1C(=O)Cc1ccc(Cl)c(Cl)c1 (stereo unspecified),6.13,
O=C(Cc1ccc(C(F)(F)F)cc1)N1CCc2ccccc2[C@H]1CN1CCCC1,< 6.00 and 6.83,
O=C(Cc1ccc(C(F)(F)F)cc1)N1CCCC[C@H]1CN1CCCC1 [1-(2-Pyrrolidin-1-ylmethyl-piperidin-1-yl)-2-(4-trifluoromethyl-phenyl)-ethanone],6.00,
"O=C(Cc1ccc(Cl)c(Cl)c1)N1CCCC[C@H]1CN1CCCC1 [2-(3,4-Dichloro-phenyl)-1-(2-pyrrolidin-1-ylmethyl-piperidin-1-yl)-ethanone]",,6.00
